Here are results for 1 compound from patent publication US20260150798A1, “METHODS AND COMPOSITIONS FOR IMPROVED PLANT REGENERATION FROM MICROSPORE-DERIVED EMBRYOS” (Monsanto Technology LLC, priority 2022, published 2026).

“Also recorded” adds a separate entry of the source.

The subject of the assay is microspore-derived embryos from 10 proprietary canola lines. Put plainly: Culture-free maturation and regeneration of microspore-derived embryos in soil, canola. In kind it is in vivo. Conditions: 5 mg/L added to MDE Maturation Medium, about 1 to about 24 hours before transfer to soil. As to the method:
The optimal time to dilute the microspore-derived embryos to a concentration of about 200 to about 400 embryos per plate containing 15 mL medium is about 15 days to about 20 days after the beginning microspore culture initiation (days after culture) (DAC). At this stage, the embryos are green, individually distinguishable with the naked eye, and the majority are in the torpedo stage of development. During the dilution step the embryogenesis induction medium (NLN13) is replaced with MDE Maturation Medium. The microspore-derived embryos were diluted by transferring about 200 to about 400 embryos to a new plate containing 15 mL of MDE Maturation Medium. If the original plates have a starting concentration of about 200 embryos per plate or less, then the media of the original plate is replaced with MDE Maturation Medium without embryo dilution. Following dilution and/or media replacement, plates were returned to 100 μmol fluorescent light for a 16 hour photoperiod, 25° C. day and night with an orbital shaker set to 60 RPM, and cultured to about 28 to about 30 DAC to reach a matured cotyledon stage before transferring to a solid regeneration medium. […] Regeneration rate was measured after 28 days of incubation. Microspore-derived embryos from 10 proprietary canola lines were analyzed in a series of protocols to identify optimized conditions for culture-free maturation and regeneration. […]

For `O=C(O)CCCc1c[nH]c2ccccc12` [IBA, indole-3-butyric acid], the “effect on rooting, plantlet survival and establishment in soil” value was “accelerates rooting and increases plantlet survival and establishment in soil; also recorded: improves rooting”.
